The target in experiment [1] is T1, recombinant HIV 1 RT wild type (Human immunodeficiency virus type 1 group M subtype B, UniProt P03366). Description: biochemical. The source says: The DNA-polymerase assay is based on a short primer with a specific sequence that is covalently bound to the wells of a 96 well microtiter plate. The reaction mixture contains a single stranded deoxynucleotide template with a part of the sequence complementary to the primer and the four deoxynucleoside triphosphates. Thymidine triphosphate is, however, replaced by 5-bromodeoxyuridine 5′-triphosphate (BrdUTP). The amount of bromodeoxyuridine monophosphate (BrdUMP) incorporated into DNA during the polymerase reaction, is detected with an alkaline phosphatase (Ap) conjugated anti-BrdU monoclonal antibody. An Ap substrate, 4-methylumbelliferyl phosphate, is used for fluorimetric product detection.
The inhibition studies were performed in a modified DNA polymerase assay. The drugs were serially diluted in five steps and 25 μl aliquots were transferred to each well in the microtiter plate, mixed with 100 μl DNA polymerase reaction mixture and the enzyme reaction was initiated by addition of 25 μl enzyme dilution. […] The polymerase reaction was allowed to proceed over-night (16-24 hours at 33° C.). Thereafter the reaction was terminated by a wash of the plate.
The polymerase activity at each inhibitor concentration was recalculated into % of the activity of a control in absence of inhibitor. The results are depicted in FIG. 3.
(§1) The effects of three non-nucleoside inhibitors on indicated recombinant HIV 1 RT were determined according to “Protocol for determination of inhibition of second strand synthesis on variable DNA template” using DNA polymerase γ and Retro DNA polymerase base buffer and “Protocol for determination of inhibition of reverse transcription ” respectively.

Experiment [2] has as its system T69S→SS/L210W/T215Y HIV-1 mutant RT. The experiment is described as follows: Inhibition of second strand synthesis on variable DNA template, standard reaction solution versus reaction solution with ATP. Format: biochemical. Conditions: 4 pg/well RT, 19 hours. On the procedure: The procedure for production of recombinant HIV-1 RTs with AZT specific mutations were similar but the mutations were introduced into the RT-coding region from the HXB2-D isolate.
The DNA polymerase γ and Retro DNA polymerase reaction mixture was reinforced with 3.2 mM ATP and pH was adjusted to 7.1.
The duration of the polymerization reactions was 19 hours. The RT activities obtained were recalculated into % of the activity of the same RT incubated in absence of inhibitor.
Symbols: HIV-1 wild type RT in standard DNA polymerase reaction solution (◯). HIV-1 wild type RT in DNA polymerase reaction solution with ATP (●), T69S→SS/L210W/T215Y HIV-1 mutant RT in standard DNA polymerase reaction solution (⋄),
T69S→SS/L210W/T215Y HIV-1 mutant RT in DNA polymerase reaction solution with ATP(♦).

The target in experiment [3] is T1, recombinant HIV 1 RT wild type. Description: biochemical. Also on record: The mutated and native forms of RT were isolated as previously described; made in house. Conditions: IC50 on template prA, RT type wt, first strand synthesis, 2 hours. On the procedure: In short, poly(rA) covalently bound to the wells of a 96 well microtiter plate serves as template for the incorporation of 5-bromodeoxyuridine 5′-triphosphate (BrdUTP) during the reverse transcription step at 33° C. The amount of bromodeoxyuridine monophosphate (BrdUMP) incorporated into DNA, is detected with an alkaline phosphatase (Ap) conjugated anti-BrdU monoclonal antibody. An Ap substrate, 4-methylumbelliferyl phosphate, is finally used for fluorimetric detection.
as §1

Experiment [4] deals with T2, recombinant DNA polymerase III (Staphylococcus aureus, UniProt P0C1P9).
T2 construct: made in house
T2 sequence (P0C1P9 1-1435): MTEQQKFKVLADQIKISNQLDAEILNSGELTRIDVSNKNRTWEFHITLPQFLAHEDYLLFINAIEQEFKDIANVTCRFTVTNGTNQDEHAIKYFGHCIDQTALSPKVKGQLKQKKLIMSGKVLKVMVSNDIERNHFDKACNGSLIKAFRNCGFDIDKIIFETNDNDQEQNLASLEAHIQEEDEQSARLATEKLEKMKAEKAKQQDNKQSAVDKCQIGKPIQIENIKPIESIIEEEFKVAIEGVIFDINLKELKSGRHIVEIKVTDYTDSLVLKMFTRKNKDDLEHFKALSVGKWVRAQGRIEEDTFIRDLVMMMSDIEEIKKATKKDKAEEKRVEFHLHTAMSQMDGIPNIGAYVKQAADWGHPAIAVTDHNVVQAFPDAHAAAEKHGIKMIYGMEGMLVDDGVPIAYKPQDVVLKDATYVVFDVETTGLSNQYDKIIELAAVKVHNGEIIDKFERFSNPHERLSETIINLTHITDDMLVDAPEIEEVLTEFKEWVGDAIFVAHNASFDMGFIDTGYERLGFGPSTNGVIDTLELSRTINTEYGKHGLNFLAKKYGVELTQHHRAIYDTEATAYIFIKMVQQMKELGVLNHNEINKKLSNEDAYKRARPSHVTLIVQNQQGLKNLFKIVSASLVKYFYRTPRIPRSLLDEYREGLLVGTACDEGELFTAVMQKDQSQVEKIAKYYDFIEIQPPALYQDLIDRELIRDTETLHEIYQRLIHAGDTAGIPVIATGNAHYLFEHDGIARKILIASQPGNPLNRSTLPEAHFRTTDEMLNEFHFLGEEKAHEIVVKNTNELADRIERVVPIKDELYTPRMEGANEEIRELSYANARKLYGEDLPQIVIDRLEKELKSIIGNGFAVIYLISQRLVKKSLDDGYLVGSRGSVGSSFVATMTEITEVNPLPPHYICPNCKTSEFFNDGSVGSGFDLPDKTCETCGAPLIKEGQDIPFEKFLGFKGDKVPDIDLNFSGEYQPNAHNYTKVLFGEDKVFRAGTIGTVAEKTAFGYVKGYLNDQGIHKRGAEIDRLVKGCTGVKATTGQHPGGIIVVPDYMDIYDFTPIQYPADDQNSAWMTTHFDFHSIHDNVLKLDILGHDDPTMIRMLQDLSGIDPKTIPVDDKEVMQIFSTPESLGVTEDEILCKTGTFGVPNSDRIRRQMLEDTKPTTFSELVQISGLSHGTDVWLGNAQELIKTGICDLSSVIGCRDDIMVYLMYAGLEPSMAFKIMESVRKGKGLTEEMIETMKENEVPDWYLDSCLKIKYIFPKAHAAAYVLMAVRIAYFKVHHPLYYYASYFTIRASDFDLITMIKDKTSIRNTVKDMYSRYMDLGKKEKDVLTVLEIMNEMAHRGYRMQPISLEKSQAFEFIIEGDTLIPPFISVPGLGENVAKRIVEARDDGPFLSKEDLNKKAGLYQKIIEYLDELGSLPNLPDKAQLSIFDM
Description: Inhibition of DNA polymerase III with TMAU on different templates. It is filed as biochemical. Conditions: templates (CTGA)6-A12 or (CTG)6-A3; 1.25 ng/well enzyme, one hour, GTP […]. On the procedure: DNA polymerase I (E. coli) was purchased from Amersham Bioscience. Recombinant DNA polymerase III from Staphylococus aureus was produced as described (Brown et al 1998). Mammalian DNA polymerase α (calf thymus) and β (human) were purchased from CHIMERx (Milwaukee). DNA polymerase γ was purified from beef heart as described (Pileur et al 2000).
(2-(N-Morpholino)ethanesulfonic acid) (MES) 40 mM pH 6.8, Potassium acetate (KAc) 40 mM, MgCl2 10 mM, spermine 2 mM, polyoxyethylenesorbitan monolaureate (Tween 20) 0.5%(v/v), EDTA 0.1 mM, dithiothreitol 1 mM and bovine serum albumin (BSA) 50 μg/ml.
6-anilinouracils are selective inhibitors of DNA polymerase III from gram-positive bacteria. […] The drug TMAU can be regarded as an analogue to […]. […]

Results on five compounds are retold here after patent US7488577B2, “Method for measuring DNA polymerization and applications of the method” (Cavidi Tech AB, priority 2001, dated 2009).

SMILES strings stand for the structures. Where two headings read alike, the source gives them in different places.

As usually defined, the IC50 is the concentration at which inhibition is half-maximal. Take `Nc1ccn(C2CCC(COP(=O)(O)OP(=O)(O)OP(=O)(O)O)O2)c(=O)n1` (stereo not shown) [ddCTP, 2′3′ dideoxy cytidine triphosphate]: the IC50 in experiment [1] turned out to be 20 nM.

For `Nc1ncnc2c1ncn2C1CCC(COP(=O)(O)OP(=O)(O)OP(=O)(O)O)O1` (stereo not shown) [ddATP, 2′3′ dideoxyadenosine triphosphate], the IC50 in experiment [1] worked out at 80 nM. For the compound `C[C@@H](Cn1cnc2c(N)ncnc21)OCP(=O)(O)OP(=O)(O)OP(=O)(O)O`, the “Increase of the difference in drug susceptibility between wild type and mutant RT” value in experiment [2] is “approximately 10 fold”. Take `O=C(O)P(=O)(O)O` [Foscarnet]: the IC50 was determined as 500 nM in experiment [1], 600 nM in experiment [3] (RT amount 20 fg) and 700 nM in experiment [3] (RT amount 100 fg). As for `O=c1cc(Nc2ccc3c(c2)CCC3)[nH]c(=O)[nH]1` [TMAU, 6-([3,4-trimethylene]anilino)uracil], the “Inhibitory capacity towards DNA polymerase III” value in experiment [4] was “varying inhibitory capacity depending on the sequence of the template used”.
